Source: US20190008848A1, “IDENTIFICATION OF ADDITIONAL ANTI-PERSISTER ACTIVITY AGAINST BORRELIA BURGDORFERI FROM AN FDA DRUG LIBRARY” (THE JOHNS HOPKINS UNIVERSITY, priority 2015, published 2019)
Counter-ions that a name gives are not always drawn. Like-named read-outs stand apart in the source and are kept apart here. Bridge positions count the residues as written; N and C are the ends. Square brackets hold non-standard residues; d marks the D form. Peptide text beside a SMILES is read from it. * marks the point of attachment. Ileψ(thiazoline)Cys = CC[C@H](C)[C@H](N)C1=N[C@H](C(=O)*)CS1; dOrn = NCCC[C@@H](N)C(=O)O

Tests used:
[1] = tested on: stationary phase B. burgdorferi; experiment: Residual viable B. burgdorferi by epifluorescence microscope counting after drug exposure; conditions: for viability at 50 µM: Borreliella burgdorferi, 168 h, read-out: Residual viable cells (Microscopy)
Procedure: (§1) Borrelia burgdorferi strain B31 (ATCC35210) was received from the […] (Manassas, Va., USA) and was grown in BSK-H medium (HiMedia Laboratories, Mumbai, India) and 6% rabbit serum (Sigma Aldrich, St. Louis, Mo., USA). The culture was filtered and sterilized using a […] and incubated in capped sterile 50 mL conical tubes (BD Biosciences, CA, USA) at 33° C. for 7 days without antibiotics until the culture reached stationary phase.
(§2) The cultures were examined using a Nikon Eclipse E800 microscope with differential interference contrast and epifluorescent illumination. The pictures were captured using a SPOT slider color camera. A SYBR Green I/PI assay was used to assess the viability of the bacterial sample using the ratio of live to dead B. burgdorferi (measured with green and red fluorescence, respectively) as measured by a plate reader.
(§3) Briefly, prediluted drug stock (10 μL) was added to 7 day old stationary phase B. burgdorferi culture (90 μL) to achieve a 50 μM final drug concentration per well. The plates were then incubated at 33° C. for 7 days at which point the SYBR/PI rapid viability assay was performed in a fluorescence plate reader to obtain the green-red fluorescence ratio.

[2] = tested on: stationary phase B. burgdorferi; experiment: SYBR Green I/PI viability assay (drug library screen, plate reader); conditions: for viability at 50 µM: Borreliella burgdorferi, 168 h; for activity against stationary phase B. burgdorferi (in words): screen at 50 μM, 7 days; for Residual viable cells (SYBR/PI): Table 3
Procedure: as §1, §2, §3

[3] = read-out: Residual viable cells (SYBR Green/PI), Table 1, drugs 50 μM, 7 day old stationary phase cells treated for 7 days
[4] = read-out: Residual viable cells (SYBR/PI), Table 3, drugs 50 μM, 7-day old stationary phase cells treated for 7 days
[5] = Table 1, drugs 50 μM, 7 day old stationary phase cells treated for 7 days
[6] = drugs 50 μM, 7-day old stationary phase cells treated for 7 days
[7] = read-out: Residual viable cells (SYBR Green/PI)
[8] = read-out: Residual viable cells (SYBR/PI)

Compound | viability at 50 µM [1] | viability at 50 µM [2, 3] | viability at 50 µM [2, 4] | also measured
CC1(C)S[C@@H]2[C@H](NC(=O)[C@H](N)c3ccc(O)cc3)C(=O)N2[C@H]1C(=O)O [Amoxicillin] | 76% | 76% | 76% | 
C[C@@H]1CC[C@H]2[C@@H](C)C(=O)O[C@@H]3O[C@@]4(C)CC[C@@H]1[C@]32OO4 [Artemesinin] | 45% | 49% | 49% | activity against stationary phase B. burgdorferi (in words) [2]: good activity
C[C@H]1[C@H](NC(=O)/C(=N\OC(C)(C)C(=O)O)c2csc(N)n2)C(=O)N1S(=O)(=O)O [Aztreonam] | 50% | 55% | 55% | 
CC[C@H](C)[C@H](N)C1=N[C@H](C(=O)N[C@@H](CC(C)C)C(=O)N[C@H](CCC(=O)O)C(=O)N[C@H](C(=O)N[C@H]2CCCCNC(=O)[C@H](CC(N)=O)NC(=O)[C@@H](CC(=O)O)NC(=O)[C@H](Cc3cnc[nH]3)NC(=O)[C@@H](Cc3ccccc3)NC(=O)[C@H]([C@@H](C)CC)NC(=O)[C@@H](CCCN)NC2=O)[C@@H](C)CC)CS1 [Bacitracin, Bacitracin zinc salt] ({Ileψ(thiazoline)Cys}-L[dE]IK[dOrn]I[dF]H[dD]N; lactam 4-C) | 60% | 47% | 47% | 
c1ccc(-c2ccc(C(c3ccccc3)n3ccnc3)cc2)cc1 (centres unmarked) [Bifonazole] | 50% | 48% | 48% | activity against stationary phase B. burgdorferi (in words) [2]: reasonable activity
CC1(C)S[C@@H]2[C@H](NC(=O)C(C(=O)O)c3ccccc3)C(=O)N2[C@H]1C(=O)O (some centres unmarked) [Carbenicillin] | 64% | 46% | 46% | 
C=CC1=C(C(=O)O)N2C(=O)[C@@H](NC(=O)/C(=N\OCC(=O)O)c3csc(N)n3)[C@H]2SC1 [Cefixime] | 56% | 56% | 56% | 
CO/N=C(\C(=O)N[C@@H]1C(=O)N2C(C(=O)O)=C(COC(N)=O)CS[C@H]12)c1ccco1 [Cefuroxime] | 49% | 43% |  | 
CC(C)(C)C(=O)C(Oc1ccc(Cl)cc1)n1ccnc1 (centres unmarked) [Climbazole] | 71% |  | 62% | activity against stationary phase B. burgdorferi (in words) [2]: reasonable activity
CCCCCCCCCC(=O)N[C@@H](Cc1c[nH]c2ccccc12)C(=O)N[C@H](CC(N)=O)C(=O)N[C@@H](CC(=O)O)C(=O)N[C@@H]1C(=O)NCC(=O)N[C@@H](CCCN)C(=O)N[C@@H](CC(=O)O)C(=O)N[C@H](C)C(=O)N[C@@H](CC(=O)O)C(=O)NCC(=O)N[C@H](CO)C(=O)N[C@@H]([C@H](C)CC(=O)O)C(=O)N[C@@H](CC(=O)c2ccccc2N)C(=O)O[C@@H]1C [Daptomycin] | 35% | 28% | 28% | 
C[C@H]1c2cccc(O)c2C(=O)C2=C(O)[C@]3(O)C(=O)C(C(N)=O)=C(O)[C@@H](N(C)C)[C@@H]3[C@@H](O)[C@@H]21 [Doxycycline] | 75% | 67% | 67% | 
Nc1nc(=O)[nH]cc1F [Flucytosine (5-Fluorocytosine), 5-Fluorocytosine] | 66% |  | 68% | 
CN[C@@H]1C[C@@H](c2ccc(Cl)c(Cl)c2)c2ccccc21.Cl [Indatraline, Indatraline hydrochloride] |  |  |  | Residual viable cells (Microscopy) [1, 5]: 43%; Residual viable cells (Microscopy) ([1]; Table 3, drugs 50 μM, 7-day old stationary phase cells treated for 7 days): 43%; Residual viable cells (SYBR Green/PI) [2, 5]: 51%; Residual viable cells (SYBR/PI) [2, 6]: 51%; activity against stationary phase B. burgdorferi (in words) [2]: high activity
CN(C)c1ccc2nc3ccc(=[N+](C)C)cc-3sc2c1 [Methylene blue hydrate] | 40% |  |  | activity against B. burgdorferi persisters by careful microscopy analysis (in words) ([1]; coloured drugs verified by microscopy): high activity; activity against stationary phase B. burgdorferi (in words) [2]: good activity
CN1CCCN=C1/C=C/c1cccc(O)c1 [Oxantel] | 63% | 44% | 44% | 
Nc1nc2c(ncn2CCC(CO)CO)c(=O)[nH]1 [Penciclovir] | 60% | 64% | 64% | 
c1ccc2c(c1)Nc1ccccc1S2 [Phenothiazine] | 53% |  |  | viability at 50 µM [2, 7]: 54%; viability at 50 µM [2, 8]: 54%
COc1ccc(C[C@H](N)C(=O)N[C@H]2[C@@H](O)[C@H](n3cnc4c(N(C)C)ncnc43)O[C@@H]2CO)cc1 [Puromycin] | 48% | 65% | 65% | 
CCc1nc(N)nc(N)c1-c1ccc(Cl)cc1 [Pyrimethamine] | 55% | 45% | 45% | 
CO[C@H]1/C=C/O[C@@]2(C)Oc3c(C)c([O-])c4c(O)c(cc(O)c4c3C2=O)NC(=O)/C(C)=C\C=C\[C@H](C)[C@H](O)[C@@H](C)[C@@H](O)[C@@H](C)[C@H](OC(C)=O)[C@@H]1C.[Na+] [Rifamycin SV] |  |  |  | Residual viable cells (Microscopy) [1]: 60%
CC(N)C12CC3CC(CC(C3)C1)C2 (centres unmarked) [Rimantadine] |  |  | 68% | 
CC[C@H]1OC(=O)[C@H](C)[C@@H](O[C@H]2C[C@@](C)(OC)[C@@H](O)[C@H](C)O2)[C@H](C)[C@@H](O[C@@H]2O[C@H](C)C[C@H](N(C)C)[C@H]2O)[C@](C)(O)C[C@@H](C)/C(=N\OCOCCOC)[C@H](C)[C@@H](O)[C@]1(C)O [Roxithromycin] | 65% | 62% | 62% | 

Compound | viability at 50 µM [1] | viability at 50 µM [2, 3] | viability at 50 µM [2, 4] | also measured
O=C(Nc1ccccc1)c1ccccc1O [Salicylanilide] |  |  |  | viability at 50 µM [2, 8]: 63%
O=C(O)c1cn(-c2ccc(F)cc2)c2cc(N3CCNCC3)c(F)cc2c1=O [Sarafloxacin, Sarafloxacin HCl] | 50% | 47% | 47% | 
Nc1ccc(S(=O)(=O)Nc2ccc(Cl)nn2)cc1 [Sulfachlorpyridazine] |  |  |  | viability at 50 µM [2, 8]: 58%
Cc1nc(NS(=O)(=O)c2ccc(N)cc2)oc1C [Sulfamoxole] | 55% | 57% | 57% | 
O=c1n(Cl)c(=O)n(Cl)c(=O)n1Cl [Symclosene (Trichloroisocyanuric acid), Trichloroisocyanuric acid] |  |  |  | viability at 50 µM [2, 8]: 60%
C[C@]1(Cn2ccnn2)[C@H](C(=O)O)N2C(=O)C[C@H]2S1(=O)=O [Tazobactam] | 56% | 54% | 54% | 
ClC(Cl)=C(Cl)Cl [Tetrachloroethylene] | 53% |  |  | viability at 50 µM [2, 8]: 36%
c1ccc(C2CN3CCSC3=N2)cc1 (centres unmarked) [Tetramisole] |  | 48% | 48% | 
CC(=O)Nc1ccc(/C=N/NC(N)=S)cc1 [Thiacetazone (Amithiozone), Amithiozone] |  |  | 73% | 
CS(=O)(=O)c1ccc([C@@H](O)[C@@H](CO)NC(=O)C(Cl)Cl)cc1 [Thiamphenicol] |  |  | 57% | 
C=C(NC(=O)C(=C)NC(=O)c1csc(C2=N[C@@H]3c4csc(n4)[C@H]4NC(=O)c5csc(n5)[C@H]([C@](C)(O)[C@@H](C)O)NC(=O)[C@H]5CSC(=N5)/C(=C/C)NC(=O)[C@H]([C@@H](C)O)NC(=O)c5csc(n5)[C@]3(CC2)NC(=O)[C@H](C)NC(=O)C(=C)NC(=O)[C@H](C)NC(=O)[C@H]([C@@H](C)CC)N[C@@H]2C=Cc3c([C@H](C)O)cc(nc3[C@H]2O)C(=O)O[C@@H]4C)n1)C(N)=O [Thiostrepton] | 66% |  |  | viability at 50 µM [2, 7]: 43%; viability at 50 µM [2, 8]: 43%
CCN(CC)CCOc1ccc2c(c1)C(=O)c1cc(OCCN(CC)CC)ccc1-2 [Tilorone, Tilorone dihydrochloride] |  | 44% | 44% | activity against stationary phase B. burgdorferi (in words) [2]: good activity
Cc1cc(-n2c(=O)[nH]c(=O)n(C)c2=O)ccc1Oc1ccc(SC(F)(F)F)cc1 [Toltrazuril] | 60% | 43% | 43% | 
NC1CCN(c2nc3c(cc2F)c(=O)c(C(=O)O)cn3-c2ccc(F)cc2F)C1 (centres unmarked) [Tosufloxacin] |  | 57% | 57% | 
O=c1[nH]c(=O)n([C@H]2C[C@H](O)[C@@H](CO)O2)cc1C(F)(F)F [Trifluridine] |  |  | 55% | 
C=CCCCCCCCCC(=O)O [Undecylenic acid] | 74% |  | 55% | 
CC(C)[C@H](N)C(=O)OCCOCn1cnc2c(=O)[nH]c(N)nc21 [Valacyclovir] |  |  | 58% | 
C[C@@H](c1ncncc1F)[C@](O)(Cn1cncn1)c1ccc(F)cc1F [Voriconazole] |  |  | 65% | 
CC(=O)N[C@H]1[C@H]([C@H](O)[C@H](O)CO)OC(C(=O)O)=C[C@@H]1N=C(N)N [Zanamivir] | 60% | 49% | 49% | activity against stationary phase B. burgdorferi (in words) [2]: good activity
Nc1ccc([As](=O)(O)O)cc1 [p-Arsanilic acid] |  |  |  | Residual viable cells (SYBR/PI) [2, 6]: 49%
Penimepicycline |  |  |  | Residual viable cells (Microscopy) [1]: 60%
